From PMC6973020, “Quinoline‐Conjugated Ruthenacarboranes: Toward Hybrid Drugs with a Dual Mode of Action” (Chemmedchem, 2019)

Columns and labels:
MCF‐7 cells = test: Sideward Scatter (SSC, cell granularity), MCF‐7; format: cell-based, human; settings: MCF‐7, 20 μM of 4, 72 h
Protocol: Flow cytometry. For gaining better insights into the mechanisms of action of the ruthenium complexes, MCF‐7 and LN229 cells incubated with an IC50 dose of 3 or 4, were analyzed via flow cytometry. Several staining protocols were carried out in parallel, in independent experiments: i) AnnV/PI for the detection of apoptotic cell death, ii) AO for the detection of acidic vacuoles, iii) ApoStat for checking caspase activation, iv) CFSE for detecting interference with cellular proliferation, and v) DAPI for the detection of morphological signs of apoptosis. Untreated cells or cells treated only with BSA (control) were also measured, as reference for BSA‐free and BSA‐containing drug formulations, respectively. […] Channels FL1 (green emission), FL2 (orange emission) and/or FL3 (dark red emission) were used for fluorescence detection, according to the specific staining agent. Sideward Scatter (SSC) for MCF‐7 cells treated with 4 or BSA−4 was also analyzed, with respect to the control, for detection of shifts of cell granularity. […]
Figure S16. […] Respective controls, i.e. untreated cells or cells treated only with BSA, were also measured for comparison. […]
Figure S17. […] Respective controls, i.e. untreated cells or cells treated only with BSA, were also measured for comparison.
Sideward Scatter is proportional to cell granularity and was determined via flow cytometry. […]

[1] = Ester hydrolysis in PBS/DMSO at pH 7.4 (time‐resolved UV‐vis); format: physicochemical; settings: PBS/DMSO (1 vol%), 20 μM
Description: Following our recent investigations on the self‐assembly behavior of ruthenacarborane complexes in aqueous solutions at physiologic pH,9, 10 the behavior of free acid 3 and ester 4 in aqueous solution was studied via UV‐vis spectroscopy and Nanoparticle Tracking Analysis (NTA) in phosphate‐buffered saline (PBS)/DMSO mixtures (pH 7.4). UV‐vis spectroscopy is a useful tool to follow the ester hydrolysis over time, when a UV‐(vis)‐active chromophore is present (in the case of 4, the quinoline ring). Experiments were carried out at room temperature (23 and 25 °C, for UV‐vis and NTA, respectively), to simulate the conditions of the working solutions used for cell cultures, and at 37 °C (UV‐vis), to simulate the conditions of incubation of cells.
UV‐vis spectroscopy. Stock solutions of 3, 4 and 8‐hydroxyquinoline (8‐HQ) in distilled DMSO were freshly prepared before use ([3]=2.11 mM; [4]=6.56 mM; [8‐HQ]=25.76 mM). An aliquot of the DMSO stock solution of 3, 4 or 8‐HQ was added to 3 mL PBS solution, so that the final concentration was 20 μM. DMSO content was adjusted to 1 vol % (considering the amount of DMSO from the stock solutions) before addition of the ruthenacarborane, in all samples. Time‐resolved UV‐vis spectra of 4 were measured, over a period of 26 h at room temperature (23±1 °C) and at 37±0.3 °C to follow hydrolysis of the ester bond of 4 at physiologic pH (7.4). PBS/DMSO solutions of 3 and 8‐HQ were also measured, as references. All measurements were corrected by subtracting the blank (PBS+1 vol % DMSO). Experiments were run in duplicate.

time after which hydrolysis is pronounced ([1]; pH 7.4, 23 °C): 5 h | time to complete hydrolysis of the ester bond ([1]; pH 7.4, 23 °C): 23 h | time to complete hydrolysis of the ester bond ([1]; pH 7.4, 37 °C): 2.5 h
Substance: closo ‐[3‐(η^6‐p‐Cymene)‐1‐(quinolin‐8‐yl‐acetate)‐3,1,2‐RuC2B9H10] [Compound 4]
cell granularity (SSC) (MCF‐7 cells): enhanced granularity
